The source of these data is US9555061B2, “Synthesis and analysis of compounds capable of inducing differentiation of human mesenchymal stems cells into hepatocytes” (National University Corporation Torrori University, priority 2011, dated 2017).

In data set [1] the test system is Wnt/β-catenin signaling pathway. Kind of data set: Ability of inhibiting Wnt/β-catenin pathway, luciferase assay (UE7T-13). The data set is classed as cell-based, human. To be noted: 8 days after the treatment; pTCF4-CMV-luciferase reporter. From the text:
FIG. 3 is a schematic diagram illustrating how to establish a human mesenchymal stem cell stably expressing a β-catenin/TCF4/luciferase reporter gene. FIG. 3 illustrates how to construct pTCF4-CMVpro-GL4.20 plasmid by using a luciferase expression vector. The pTCF4-CMVpro-GL4.20 plasmid contains three TCF4 sequences […] upstream of a CMV promoter to express luciferase. In addition, pCMVpro-GL4.20 plasmid was constructed as a control. The resulting plasmids were each linearized, introduced into UE7T-13 by electroporation, and selected using puromycin (0.25 μg/ml) supplemented in a medium. Puromycin-resistant cells were cloned and used for a luciferase assay.
The cell line having a vector stably expressing luciferase was seeded on a 24-well plate, and was cultured at 37° C. At the next day, the medium was changed to a medium containing IC-2, etc., and the cell line was further cultured at 37° C. After that, at days 1, 4, and 8, a luciferase assay system (Promega) was used and the luciferase activity was read with a fluorescence plate reader (ARVO) at a wavelength of 556 nm.
(In general: A reporter such as luciferase makes a cellular process visible.)

The test system of data set [2] is UE7T-13 cells. Particulars: human.
The test system of data set [3] is UE7T-13 cells. Kind of data set: Periodic acid-Schiff (PAS) staining (UE7T-13). The data set is classed as cell-based, human. The procedure:
(3-4) Periodic Acid-Schiff (PAS) Staining (UE7T-13) A cover glass (22×22 mm, […]) was sterilized with 70% EtOH and placed in a 6-well plate. Next, cells were seeded on the cover glass and cultured in a medium containing IC-2, etc. At 8, 16, and 24 days after the initiation of the culture, the cells were washed twice with PBS. Then, the cells were treated with 4% paraformaldehyde/PBS for 20 min and fixed onto the cover glass. As a negative control, 10 mg/ml of α-amylase (10 mg/ml; in 0.1 M phosphate buffer solution at pH 6.8) was added, and the cells were incubated therewith at 37° C. for 1 h to digest their glycogen. Subsequently, 1% aqueous periodic acid was used for oxidation treatment for 10 min. After that, the cells were treated with a Schiff reagent for 15 min to stain glycogen. Then, the cells were washed three times with aqueous sulfurous acid and were washed three times with distilled water. After their nuclei were stained with Mayer's hematoxylin, 50% glycerol diluted with PBS was used to mount the cover glass. Finally, the cells were observed under a light microscope. The cells which had been cultured with 0.1% DMSO were used as a control.

Another data set has as its system β-catenin/Tcf complex. Particulars: Drug Discov. Today 2005, 10, 1467-1474; cited from earlier work.
The subject of data set [4] is clinical specimen-derived mesenchymal stem cells. Put plainly: RT-PCR of hepatocyte differentiation marker in clinical specimen-derived mesenchymal stem cells. The data set is classed as cell-based, human. To be noted: hexachlorophene 4 μM, HC-2 20 μM, PN-3-13 20 μM, IC-2 40 μM. The procedure: A fresh bone marrow aspirate was collected under informed consent from a patient (a person) with osteoarthritis who underwent replacement arthroplasty at the Department of Orthopedic Surgery, Tottori University Hospital. This aspirate was subjected to density gradient centrifugation using ficoll (Amersham Biosciences) to separate bone marrow mononuclear cells (FIG. 31). These bone marrow mononuclear cells were suspended in 1 ml of Hanks' balanced salt solution (HBSS, Gibco, Life Technologies Corp.) supplemented with a 100-fold diluted APC-labeled anti-CD90 antibody, a 407-fold diluted PE-labeled anti-CD271 antibody, and 2% fetal bovine serum (FBS, Defined, Thermo Fisher Scientific Inc.), and were stained on ice for 30 min. A flow cytometer (MoFlo XDP, Beckman Coulter Inc.) was used to selectively separate mesenchymal stem cells. The resulting cells were cultured in Dulbecco's Modified Eagle's Medium (Low Glucose, Gibco, Life Technologies Corp.) containing 20% FBS, 100 U/ml penicillin, […] streptomycin (Nacalai Tesque), and 20 ng/ml basic fibroblast growth factor (TRANS GENIC INC., Ltd.) on a 35-mm dish under conditions at 37° C. and 5% CO2. The medium was changed every 4 days. After colonies were formed, the cells were detached using a 0.025% trypsin/1 mM EDTA solution (Nacalai Tesque), split on a 100-mm dish, and cultured under conditions at 37° C. and 5% CO2. Then, the cells which were kept 70 to 80% confluent were detached using trypsin treatment. These cells in one dish were divided into four dishes for passage.
Cells were seeded on a 6-well plate at a cell density of 1.8×10^4 cells/cm^2. This day was designated as day 0. At day 1 corresponding to the next day, the medium was changed to a medium containing any one of hexachlorophene (at a final concentration of 4 μM), HC-2 (at a final concentration of 20 μM), PN-3-13 (at a final concentration of 20 μM), IC-2 (at a final concentration of 40 μM), and 0.1% DMSO. […]

The test system is the same in data set [5]. Put plainly: Immunofluorescence staining in clinical specimen-derived mesenchymal stem cells. The format is cell-based, human. Particulars: day 8; PN-3-13 20 μM, IC-2 40 μM.
Method: A cover glass that had been sterilized with 100% ethanol was placed on a 12-well plate. Cells were seeded on the cover glass at a cell density of 1.8×10^4 cells/cm^2. This day was designated as day 0. At day 1 corresponding to the next day, the medium was changed to a medium containing HC-2 (at a final concentration of 20 μM), PN-3-13 (at a final concentration of 20 μM), IC-2 (at a final concentration of 40 μM), or 0.1% DMSO. At day 4, the medium was changed in a manner similar to that at day 1. At day 8, the culture medium was removed and the cells were washed twice with PBS. Then, in order to perform immunostaining of albumin, the cells were fixed for 20 min with 4% paraformaldehyde (Nacalai Tesque) containing 8% sucrose (Wako Pure Chemical Industries, Ltd.). For immunostaining of C/EBPα or CYP1A1, the cells were fixed for 20 min with 4% paraformaldehyde. After that, the cells were permeated with 0.2% Triton X-100 (Wako Pure Chemical Industries, Ltd.) for 10 min and were then blocked in 3% BSA (Nacalai Tesque) at room temperature for 30 min without shaking.
After the primary antibody reaction, the cells were washed with 0.1% BSA/PBS. […] The cells were incubated with each antibody, and were kept in a dark condition at room temperature for 1 h to carry out a secondary antibody reaction. Their nuclei were stained with DAPI (Cell Signaling Technology Inc.). […]
Data set [6] deals with CD90+CD271+ bone marrow-derived mesenchymal stem cells. Kind of data set: Urea assay in CD90+CD271+ bone marrow-derived mesenchymal stem cells. The data set is classed as cell-based, human. To be noted: hexachlorophene 4 μM, PN-3-13 20 μM, IC-2 40 μM; day 8 plus 96 h ammonium chloride. The procedure: A urea assay was performed according to the following protocol. CD90^+CD271^+ bone marrow-derived mesenchymal stem cells were seeded on a 24-well plate at a cell density of 1.8×10^4 cells/cm^2. This day was designated as day 0. At day 1 corresponding to the next day, each medium was changed to a medium containing hexachlorophene (at a final concentration of 4 μM), HC-2 (at a final concentration of 20 μM), PN-3-13 (at a final concentration of 20 μM), IC-2 (at a final concentration of 40 μM), or 0.1% DMSO. At day 4, the medium was changed in a manner similar to that at day 1, and the cells were cultured until day 8. At day 8, the medium was removed, and replaced with a medium containing ammonium chloride (Nacalai Tesque) at a final concentration of 5 mM. The cells were further cultured for 96 h. At 96 h after the addition of ammonium chloride, levels of urea in the medium were determined using a QuantiChrom Urea Assay Kit (BioAssay Systems) according to the attached protocol by reading the absorbance at a wavelength of 520 nm with a microplate reader. The levels of urea were calculated based on a standard sample according to the attached calculation method. As a negative control for the urea assay, used were CD90^+CD271^+ bone marrow-derived mesenchymal stem cells that were seeded one day before the day of the immunostaining and were not subjected to the differentiation induction.

For data set [7], the system named is clinical specimen-derived mesenchymal stem cells. Kind of data set: PAS staining in clinical specimen-derived mesenchymal stem cells. The data set is classed as cell-based, human. Particulars: day 8, PN-3-13 20 μM, IC-2 40 μM. The procedure:
PAS staining was performed according to the following procedure. A cover glass that had been sterilized with 100% ethanol was placed on a 12-well plate. Cells were seeded on the cover glass at a cell density of 1.8×10^4 cells/cm^2. This day was designated as day 0. At day 1 corresponding to the next day, each medium was changed to a medium containing HC-2 (at a final concentration of 20 μM), PN-3-13 (at a final concentration of 20 μM), IC-2 (at a final concentration of 40 μM), or 0.1% DMSO. At day 4, the medium was changed in a manner similar to that at day 1, and the cells were cultured until day 8. At day 8, the cells were washed twice with PBS and were fixed with 4% paraformaldehyde for 30 min. As a negative control, α-amylase (Nacalai Tesque) at a final concentration of 10 mg/ml was added, and the cells were incubated therewith at 37° C. for 1 h to digest their glycogen. Subsequently, the cells were treated with 1% aqueous periodic acid for 5 min. Then, the cells were treated with a Schiff reagent (Nacalai Tesque) for 15 min to stain glycogen. After that, the cells were washed three times with aqueous sulfurous acid and were then washed three times with distilled water. The nuclei were stained with Mayer's Hematoxylin (MUTO PURE CHEMICALS CO., LTD.) for 1 min. […]

Data set [8] concerns UE7T-13 cells. Kind of data set: Proliferation potential (toxicity), MTT assay (UE7T-13). Particulars: days 2, 4, 8 of treatment. (In general: Formazan colour is commonly taken as a measure of viable cells.)

SMILES strings stand for the structures. Like-named read-outs stand apart in the source and are kept apart here. Bounds are passed on as bounds.

As to `COc1c(Cl)cc(Cl)c(Cl)c1Cc1c(Cl)c(Cl)cc(Cl)c1OC` [HC-1, bis(2,3,5-trichloro-6-methoxyphenyl)methane], the “concentration that significantly inhibited the Wnt/β-catenin signaling pathway” value in [1] was at least 2 µM. Moreover, the “concentration with very low cell toxicity toward UE7T-13 cells” value with UE7T-13 cells [2] is at most 8 µM.

Regarding `O=C1[C@H](Cc2ccc(O)cc2)N2C(=O)CCN(C(=O)NCc3ccccc3)[C@H]2CN1Cc1cccc2ccccc12` [ICG-001], in the data set on UE7T-13 cells [3], the “intracellular glycogen accumulation compared with negative control (0.1% DMSO)” value is listed as “did not increase”. Moreover, the “antagonism of transcriptional activation by a β-catenin/Tcf complex” value with β-catenin/Tcf complex was “potent antagonist”.

Regarding `O=C(N/N=C/c1c(F)c(F)c(F)c(F)c1F)c1ccccc1Oc1ccccc1` [PN-3-13, N′-[(E)-pentafluorophenylmethylidene]-2-phenoxybenzohydrazide], in data set [1], the “concentration that significantly inhibited the Wnt/β-catenin signaling pathway” value is at least 9 µM. The expression of albumin entry in data set [4] is “induced”. The “levels of expression of albumin, C/EBPα, and CYP1A1 compared with negative control (0.1% DMSO)” value in data set [5] is “apparently increased”. For the same compound, the “cellular urea synthesis compared with negative control (0.1% DMSO)” value in data set [6] was “apparent increase”. For the same compound, the “cellular glycogen accumulation compared with negative control (0.1% DMSO)” value in data set [7] is on record as “apparent increase”. The “concentration with very low cell toxicity toward UE7T-13 cells” value in the data set with UE7T-13 cells [8] was at most 10 µM.
